Laboratory results reported in ChEMBL document CHEMBL4229439, “Design, synthesis and antimycobacterial activity of 3,5-dinitrobenzamide derivatives containing fused ring moieties” (2018).
Values after ≈ are worked out from the molar mass of the structure shown. Active and inactive are the calls of the source. No cut-off for these calls is given here.

These compounds were tested on Mycobacterium tuberculosis (assay: Antimycobacterial activity against Mycobacterium tuberculosis H37Rv ATCC 27294 after 7 days by Alamar blue assay). Conditions: H37Rv ATCC 27294, 168 h.
Type: functional

First: COc1ccc(C(=O)N2Cc3ccc(CNC(=O)c4cc([N+](=O)[O-])cc([N+](=O)[O-])c4)cc3C2)cc1
Second: COc1ccc(C(=O)N2CCc3cc(CNC(=O)c4cc([N+](=O)[O-])cc([N+](=O)[O-])c4)ccc3C2)cc1
The MIC of the first is higher: > 32 µg/mL for the first, 1.15 µg/mL (≈ 2.34 µM) for the second.

Compared with CCOC(=O)CN1CCc2cc(CNC(=O)c3cc([N+](=O)[O-])cc([N+](=O)[O-])c3)ccc2C1, CC(=O)CN1CCc2cc(CNC(=O)c3cc([N+](=O)[O-])cc([N+](=O)[O-])c3)ccc2C1 is 13-fold higher in MIC: 0.243 µg/mL (≈ 0.549 µM) for the first, 3.12 µg/mL (≈ 7.56 µM) for the second.

COc1ccc(CN2Cc3ccc(CNC(=O)c4cc([N+](=O)[O-])cc([N+](=O)[O-])c4)cc3C2)cc1 and O=C(NCc1ccc2c(c1)CN(Cc1ccc(F)cc1)C2)c1cc([N+](=O)[O-])cc([N+](=O)[O-])c1 are within 1.5-fold of each other in MIC: 0.03 µg/mL (≈ 0.0649 µM) for the first, 0.028 µg/mL (≈ 0.0622 µM) for the second.

Going from O=c1nc(N2CCN(CC3CCCCC3)CC2)sc2c([N+](=O)[O-])cc(C(F)(F)F)cc12 [MACOZINONE] to O=C(NCc1ccc2c(c1)CCN(CC1CCCCC1)C2)c1cc([N+](=O)[O-])cc([N+](=O)[O-])c1, the MIC rises from < 0.016 µg/mL to 0.226 µg/mL (≈ 0.499 µM).

First: O=C(NCc1ccc2c(c1)CN(C(=O)c1ccc(OC(F)(F)F)cc1)C2)c1cc([N+](=O)[O-])cc([N+](=O)[O-])c1
Second: O=C(NCc1ccc2c(c1)CN(C(=O)c1ccc(F)cc1)C2)c1cc([N+](=O)[O-])cc([N+](=O)[O-])c1
The MIC of the first is 3-fold lower: 0.309 µg/mL (≈ 0.583 µM) for the first, 0.926 µg/mL (≈ 1.99 µM) for the second.

Going from O=C(CN1CCc2cc(CNC(=O)c3cc([N+](=O)[O-])cc([N+](=O)[O-])c3)ccc2C1)NCc1ccccc1 to O=C(CN1CCc2cc(CNC(=O)c3cc([N+](=O)[O-])cc([N+](=O)[O-])c3)ccc2C1)OCc1ccccc1, the MIC rises from 3.96 µg/mL (≈ 7.86 µM) to 7.55 µg/mL (≈ 15 µM) (1.9-fold).

First: O=C(NCc1ccc2c(c1)CCN(C(=O)c1ccc(F)cc1)C2)c1cc([N+](=O)[O-])cc([N+](=O)[O-])c1
Second: O=C(NCc1ccc2c(c1)CCN(C(=O)c1ccccc1)C2)c1cc([N+](=O)[O-])cc([N+](=O)[O-])c1
The MIC of the first is 2.3-fold lower: 0.424 µg/mL (≈ 0.886 µM) for the first, 0.974 µg/mL (≈ 2.12 µM) for the second.

Compared with O=C(NCc1ccc2c(c1)CCN(Cc1cccc(F)c1)C2)c1cc([N+](=O)[O-])cc([N+](=O)[O-])c1, O=C(NCc1ccc2c(c1)CCN(Cc1ccc(F)cc1)C2)c1cc([N+](=O)[O-])cc([N+](=O)[O-])c1 is 2.2-fold higher in MIC: 0.056 µg/mL (≈ 0.121 µM) for the first, 0.122 µg/mL (≈ 0.263 µM) for the second.

Compared with O=C(NCc1ccc2c(c1)CCN(c1ccc(F)cc1)C2)c1cc([N+](=O)[O-])cc([N+](=O)[O-])c1, O=C(NCc1ccc2c(c1)CN(c1ccc(F)cc1)C2)c1cc([N+](=O)[O-])cc([N+](=O)[O-])c1 is 2.9-fold lower in MIC: 0.076 µg/mL (≈ 0.169 µM) for the first, 0.026 µg/mL (≈ 0.0596 µM) for the second.

First: O=C(NCc1ccc2c(c1)CCN(Cc1ccc(Cl)cc1)C2)c1cc([N+](=O)[O-])cc([N+](=O)[O-])c1
Second: O=C(NCc1ccc2c(c1)CCN(Cc1ccc(Br)cc1)C2)c1cc([N+](=O)[O-])cc([N+](=O)[O-])c1
The MIC of the first is 1.9-fold lower: 0.056 µg/mL (≈ 0.116 µM) for the first, 0.108 µg/mL (≈ 0.206 µM) for the second.

O=C(NCc1ccc2c(c1)CCN(c1ccc(C(F)(F)F)cc1)C2)c1cc([N+](=O)[O-])cc([N+](=O)[O-])c1 and O=C(NCc1ccc2c(c1)CN(c1ccc(C(F)(F)F)cc1)C2)c1cc([N+](=O)[O-])cc([N+](=O)[O-])c1 are within 1.5-fold of each other in MIC: 0.079 µg/mL (≈ 0.158 µM) for the first, 0.098 µg/mL (≈ 0.201 µM) for the second.

First: O=C(NCc1ccc2c(c1)CN(Cc1ccc(OC(F)(F)F)cc1)C2)c1cc([N+](=O)[O-])cc([N+](=O)[O-])c1
Second: O=C(NCc1ccc2c(c1)CCN(Cc1ccc(OC(F)(F)F)cc1)C2)c1cc([N+](=O)[O-])cc([N+](=O)[O-])c1
The MIC of the first is 15-fold lower: 0.016 µg/mL (≈ 0.031 µM) for the first, 0.241 µg/mL (≈ 0.454 µM) for the second.

Going from CO[C@H]1/C=C/O[C@@]2(C)Oc3c(C)c(O)c4c(O)c(c(/C=N/N5CCN(C)CC5)c(O)c4c3C2=O)NC(=O)/C(C)=C\C=C\[C@H](C)[C@H](O)[C@@H](C)[C@@H](O)[C@@H](C)[C@H](OC(C)=O)[C@@H]1C [RIFAMPIN] to CC(C)(C)C(=O)N1CCc2cc(CNC(=O)c3cc([N+](=O)[O-])cc([N+](=O)[O-])c3)ccc2C1, the MIC rises from 0.095 µg/mL (≈ 0.115 µM) to 0.447 µg/mL (≈ 1.01 µM) (4.7-fold).

Going from CN1CCc2cc(CNC(=O)c3cc([N+](=O)[O-])cc([N+](=O)[O-])c3)ccc2C1 to CC(=O)CCN1CCc2cc(CNC(=O)c3cc([N+](=O)[O-])cc([N+](=O)[O-])c3)ccc2C1, the MIC rises from 11.4 µg/mL (≈ 30.9 µM) to 22.7 µg/mL (≈ 53.3 µM) (2-fold).

Going from NNC(=O)c1ccncc1 [ISONIAZID] to O=C(NCc1ccc2c(c1)CNC2)c1cc([N+](=O)[O-])cc([N+](=O)[O-])c1, the MIC falls from 0.039 µg/mL (≈ 0.284 µM) to < 0.016 µg/mL.

First: O=C(NCc1ccc2c(c1)CCN(Cc1cc(C(F)(F)F)cc(C(F)(F)F)c1)C2)c1cc([N+](=O)[O-])cc([N+](=O)[O-])c1
Second: O=C(NCc1ccc2c(c1)CN(Cc1ccc(C(F)(F)F)cc1)C2)c1cc([N+](=O)[O-])cc([N+](=O)[O-])c1
The MIC of the first is higher: 1.9 µg/mL (≈ 3.26 µM) for the first, < 0.016 µg/mL for the second.

Going from O=C(NCc1ccc2c(c1)CN(C(=O)C1CCCCC1)C2)c1cc([N+](=O)[O-])cc([N+](=O)[O-])c1 to O=C(NCc1ccc2c(c1)CCN(C(=O)C1CCCCC1)C2)c1cc([N+](=O)[O-])cc([N+](=O)[O-])c1, the MIC falls from 0.808 µg/mL (≈ 1.79 µM) to 0.5 µg/mL (≈ 1.07 µM) (1.6-fold).

Compared with O=C(NCc1ccc2c(c1)CCN(C(=O)CC1CCCCC1)C2)c1cc([N+](=O)[O-])cc([N+](=O)[O-])c1, CC(C)CC(=O)N1CCc2cc(CNC(=O)c3cc([N+](=O)[O-])cc([N+](=O)[O-])c3)ccc2C1 is 4.8-fold lower in MIC: 0.978 µg/mL (≈ 2.04 µM) for the first, 0.204 µg/mL (≈ 0.463 µM) for the second.

Compared with O=C(NCc1ccc2c(c1)CN(C(=O)c1ccccc1)C2)c1cc([N+](=O)[O-])cc([N+](=O)[O-])c1, CC(C)(C)C(=O)N1Cc2ccc(CNC(=O)c3cc([N+](=O)[O-])cc([N+](=O)[O-])c3)cc2C1 is 3-fold lower in MIC: 1.45 µg/mL (≈ 3.25 µM) for the first, 0.489 µg/mL (≈ 1.15 µM) for the second.

First: CCC(C)C(=O)N1CCc2cc(CNC(=O)c3cc([N+](=O)[O-])cc([N+](=O)[O-])c3)ccc2C1 (stereo not drawn)
Second: CCN(CC)C(=O)CN1CCc2cc(CNC(=O)c3cc([N+](=O)[O-])cc([N+](=O)[O-])c3)ccc2C1
The MIC of the first is 33-fold lower: 0.468 µg/mL (≈ 1.06 µM) for the first, 15.3 µg/mL (≈ 32.7 µM) for the second.

First: CC(C)(C)OC(=O)CN1CCc2cc(CNC(=O)c3cc([N+](=O)[O-])cc([N+](=O)[O-])c3)ccc2C1
Second: O=C(NCc1ccc2c(c1)CCN(c1ccc(OC(F)(F)F)cc1)C2)c1cc([N+](=O)[O-])cc([N+](=O)[O-])c1
The MIC of the first is 16-fold higher: 3.81 µg/mL (≈ 8.1 µM) for the first, 0.241 µg/mL (≈ 0.467 µM) for the second.

These compounds were tested on Mycobacterium tuberculosis (assay: Antimycobacterial activity against Mycobacterium tuberculosis H37Rv ATCC 27294 up to 10 ug/ml after 7 days by Alamar blue assay). Conditions: not given.
Type: functional, organism-based

With O=C(NCc1ccc2c(c1)CNC2)c1cc([N+](=O)[O-])cc([N+](=O)[O-])c1 the Activity was “inactive”.
